# Where “and” joins values, the source holds several entries; their conditions need not be identical. Equal values may be shown once.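 A five-concentration, 48-hour dose response in 96-well plates underlies each endpoint, interpolated linearly between surrounding concentrations. Here, GI50 denotes the concentration required for 50% inhibition of growth. At the TGI there is no net growth.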
# Key:
# Assay in all cases: NCI-60 cell line screen, 48 h
# [1] = tested on: CCRF-CEM leukemia
# [2] = tested on: NCI-H460 lung
# [3] = tested on: SF-539 CNS
# [4] = tested on: CAKI-1 renal
# [5] = tested on: A549 NSCLC
# [6] = tested on: K-562 leukemia
# [7] = tested on: KM12 colon
# [8] = tested on: NCI-H226 lung
# [9] = tested on: COLO 205 colon
# [10] = tested on: SK-OV-3 ovarian
SMILES,GI50 [1],TGI [1],GI50 [2],TGI [2],GI50 [3],TGI [3],GI50 [4],TGI [4],GI50 [5],TGI [5],GI50 [6],TGI [6],GI50 [7],TGI [7],GI50 [8],TGI [8],GI50 [9],TGI [9],GI50 [10],TGI [10]
NCCSC(C[N+](=O)[O-])c1ccccc1Cl (configuration not stated),3.8 µM,> 86.7 µM,11.8 µM,32 µM,2.42 µM,5.49 µM,9.88 µM,24.3 µM,4.87 µM,15.5 µM,2.96 µM,> 23.7 µM,1.82 µM,3.42 µM,2.28 µM,5.55 µM,2.14 µM,4.35 µM,11.7 µM,24 µM
COc1cc(NC(=O)c2cc(O)c(C/C=C(\C)CCC=C(C)C)c(O)c2)cc2c1O[C@]1(C)CC[C@@H](O)C(C)(C)[C@H]1C2,0.463 µM,7.21 µM,1.97 µM,11.2 µM,0.348 µM,2.38 µM,1.53 µM,11.8 µM,1.98 µM,6.66 µM,0.957 µM,4.88 µM,1.63 µM,4.44 µM,3.34 µM,16.2 µM,2.22 µM,6.72 µM,1.79 µM,12.9 µM
O=C(Cn1c2ccccc2c2ccncc21)N/N=C\c1ccc2ccccc2c1,45.1 µM,> 100 µM,13.9 µM,39.9 µM,13.6 µM,28.7 µM,–,–,20.9 µM,57.1 µM,24.7 µM,> 100 µM,29.6 µM,> 100 µM,21.9 µM,65.2 µM,25.8 µM,> 100 µM,18.2 µM,39.4 µM
O=C(CN1C(=O)S/C(=C\C(Cl)=C\c2ccccc2)C1=O)NCCCn1ccnc1,–,–,2.21 µM,6.44 µM,2.08 µM,5.27 µM,1.91 µM,4.16 µM,3.3 µM,23.2 µM,2.17 µM,> 100 µM,1.95 µM,4.22 µM,2.16 µM,5.19 µM,2.1 µM,4.82 µM,5.23 µM,> 100 µM
COc1cc2c3cc1Oc1c(OC)c(OC)cc4c1C(Cc1ccc(cc1)Oc1cc(ccc1O)CC3N(C)CC2)N(C)CC4 (configuration not stated),6.96 µM and 2.78 µM,58.3 µM and 24.7 µM,14.5 µM and 4.72 µM,32.6 µM and 17.3 µM,11.4 µM and 1.56 µM,23.6 µM and 3.81 µM,–,42.9 µM and 31.4 µM,–,39.6 µM and 25.2 µM,–,–,–,24.8 µM and 26.2 µM,–,40.6 µM and 37.5 µM,11 µM and 1.52 µM,23 µM and 11.3 µM,–,69.6 µM and 86.2 µM
Cc1cccc(N=C2NC(=O)C(CC(=O)Nc3ccccc3Cl)S2)c1 (configuration not stated),–,> 100 µM,–,> 100 µM,–,> 100 µM,–,> 100 µM,–,> 100 µM,–,> 100 µM,–,–,–,> 100 µM,–,–,–,–
O=c1[nH]cnc2c1ncn2CCCCO,–,> 100 µM,–,> 100 µM,–,> 100 µM,–,> 100 µM,–,> 100 µM,–,> 100 µM,–,> 100 µM,–,> 100 µM,–,> 100 µM,–,–
CCCCCCCCCCCCCCCCCc1nnc(N)o1,–,–,–,> 100 µM,–,> 100 µM,–,> 100 µM,–,> 100 µM,–,> 100 µM,–,> 100 µM,–,> 100 µM,–,> 100 µM,–,> 100 µM
O=c1cc(-c2ccc(O)cc2)oc2cc(O)cc(O)c12,–,> 100 µM,–,> 100 µM,–,–,–,–,–,> 100 µM,–,> 100 µM,–,82.9 µM,–,75.9 µM,–,> 100 µM,–,89.8 µM
O=c1[nH]c2c(c3ccccc13)CCc1ccccc1-2,–,–,–,–,–,> 100 µM,–,> 100 µM,–,> 100 µM,–,> 100 µM,–,> 100 µM,–,> 100 µM,–,> 100 µM,–,> 100 µM
NS(=O)(=O)c1ccc(NC(=O)c2cccc3c(Nc4ccc(S(N)(=O)=O)cc4)c4ccccc4nc23)cc1,–,87.6 µM,–,> 100 µM,–,> 100 µM,–,> 100 µM,–,> 100 µM,–,82.1 µM,–,25.6 µM,–,–,–,> 100 µM,–,> 100 µM
O=S(=O)(N/N=C/c1ccc(Cl)cc1Cl)c1ccccc1,–,> 100 µM,–,–,–,> 100 µM,–,> 100 µM,–,> 100 µM,–,> 100 µM,–,> 100 µM,–,> 100 µM,–,> 100 µM,–,> 100 µM
O=C1NC(c2ccccc2)N=C2Oc3ccccc3C=C12 (configuration not stated),–,2.65 µM,–,> 43.7 µM,–,17.6 µM,–,0.42 µM,–,> 100 µM,–,> 100 µM,–,> 22.8 µM,–,12.8 µM,–,–,–,> 100 µM
COC(=O)c1nc(N)nc(C(=O)OC)c1C(=O)c1ccccc1,–,> 100 µM,–,> 100 µM,–,> 100 µM,–,–,–,> 100 µM,–,> 100 µM,–,> 100 µM,–,–,–,–,–,> 100 µM
CCOC(=O)/C=C1\Oc2ccccc2C1(C)O (configuration not stated),–,> 100 µM,–,> 100 µM,–,–,–,> 100 µM,–,> 100 µM,–,> 100 µM,–,> 100 µM,–,> 100 µM,–,> 100 µM,–,> 100 µM
C=C(C)C(=O)O[C@H]1CC2=CC(CC(C)=C[C@H]3OC(=O)C(=C)C13)OC2=O (some centres not stated),–,17.9 µM,–,> 100 µM,–,> 100 µM,–,34.4 µM,–,> 100 µM,–,22.5 µM,–,47.1 µM,–,> 100 µM,–,29.3 µM,–,–
COc1ccc(C=C2C(=O)NC(=O)NC2=O)cc1OCc1ccccc1,–,–,–,–,20.3 µg/mL,47.4 µg/mL,–,–,–,–,30.8 µg/mL,–,33 µg/mL,–,49.1 µg/mL,–,–,–,–,–
CC(=O)O[C@H]1CC[C@@]2(C)C(=C/C(=N\[N+](=O)[O-])[C@H]3C4CCC([C@H](C)CCCC(C)C)[C@@]4(C)CCC32)C1 (some centres not stated),–,–,–,> 100 µM,–,> 100 µM,–,> 100 µM,–,> 100 µM,–,> 100 µM,–,–,–,> 100 µM,–,> 100 µM,–,> 100 µM
c1ccc2c(CN3CCC(C4CCN(Cc5cccc6ccccc56)CC4)CC3)cccc2c1,13.7 µM and 4 µM,65.3 µM and > 31.6 µM,–,52.4 µM and 46.8 µM,3.63 µM and 8.99 µM,9.53 µM and 18 µM,3.7 µM and 34.3 µM,21.2 µM and > 100 µM,–,> 100 µM,–,–,10.7 µM and 33.5 µM,33.7 µM and > 100 µM,31.7 µM and 96.8 µM,> 100 µM,–,3.39 µM and 3.65 µM,–,75.2 µM and > 100 µM
CCc1c2c(nc3ccc(OCc4ccc(B5OC(C)(C)C(C)(C)O5)cc4)cc13)-c1cc3c(c(=O)n1C2)COC(=O)[C@]3(O)CC,< 0.01 µM,> 100 µM,0.0125 µM,1.24 µM,< 0.0109 µM,0.131 µM,0.0162 µM,1.22 µM,0.06 µM,> 100 µM,0.0562 µM,> 100 µM,0.137 µM,1.62 µM,0.0214 µM,0.454 µM,0.126 µM,> 100 µM,–,–
